Publication PMC2896895 (Cell cycle (Georgetown, Tex.), 2009)

How the values were obtained:
LNCaP cells = experiment: Colony formation assay, LNCaP; type: cell-based, human
[1] = tested on: Prostate Specific Antigen (PSA) expression in C4-2 cells; experiment: PSA secretion by C4-2 cells; type: cell-based, human; conditions: 10μM of compounds, 72h, PSA in medium vs 0.1% DMSO
[2] = tested on: AR-dependent luciferase reporter (ARE-Luc) in CWR22R cells; experiment: AR-dependent luciferase reporter; type: cell-based, human; conditions: 10μM of compounds, 24h, vs 0.1% DMSO
CWR22R cells = experiment: Colony formation / growth assay, CWR22R; type: cell-based, human
C4-2 cells = experiment: Colony formation assay, C4-2; type: cell-based, human
PSA levels = conditions: Phase I clinical trial, castration resistant PCa; cited from earlier work
AR LBD = conditions: non-competitive antagonists; cited from earlier work
[3] = number of colonies, vs 0.1% DMSO

For CC(O)(CS(=O)(=O)c1ccc(F)cc1)C(=O)Nc1ccc(C#N)c(C(F)(F)F)c1 (stereo not shown) [Bic, bicalutamide], the “growth of androgen-sensitive LNCaP cells” value (LNCaP cells; colony formation, 10μM) was “suppressed growth”, the “Survival of cells in the presence of 10μM of a compound (DMSO=100%), LNCaP” value (LNCaP cells; [3]) was 19% and the “PSA secretion in C4-2 cells” value [1] was 0 % of DMSO. For the same compound, the “Activity of ARE-Luc in CWR22R11 cells” value [2] was 43 % of DMSO, the “growth of androgen-independent CWR22R cells” value (CWR22R cells; colony formation, 10μM) was “did not suppress growth” and the “Survival of cells in the presence of 10μM of a compound (DMSO=100%), CWR22R” value (CWR22R cells; [3]) was 100%. For the same compound, the “growth of androgen-independent C4-2 cells” value (C4-2 cells; colony formation, 10μM) was “did not suppress growth” and the “Survival of cells in the presence of 10μM of a compound (DMSO=100%), C4-2” value (C4-2 cells; [3]) was 91%.
For CNC(=O)c1ccc(N2C(=S)N(c3ccc(C#N)c(C(F)(F)F)c3)C(=O)C2(C)C)cc1F [MDV3100], the “PSA levels in patients” value (PSA levels) is listed as “efficacy in decreasing PSA levels”.
For CNC(=O)c1ccc(N2C(=S)N(c3ccc(C#N)c(C(F)(F)F)c3)C(=O)C23CCC3)cc1F [RD162], the “binding to the AR LBD” value (AR LBD) is listed as “bind with high affinity”.
